From ChEMBL document CHEMBL1201862, “PubChem BioAssay data set” (2004)
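The compound was tested at five concentrations on cells cultured in 96-well plates, with a 48-hour exposure period. At the GI50, growth is halved.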 Activity calls are given as the source filed them. Rule as the data show it: active = GI50 up to about 1.1 µM and inactive = higher.

How the values were obtained:
Assay in all cases: NCI anticancer screen, dose series, 48 h
RXF 393 = test system: RXF 393
SK-MEL-5 = test system: SK-MEL-5
CCRF-CEM = test system: CCRF-CEM
K562 = test system: K562
KM12 = test system: KM12
OVCAR-4 = test system: OVCAR-4
SW-620 = test system: SW-620
NCI-H23 = test system: NCI-H23
ACHN = test system: ACHN
MCF7 = test system: MCF7
HOP-62 = test system: HOP-62
NCI/ADR-RES = test system: NCI/ADR-RES
SK-MEL-2 = test system: SK-MEL-2
HCT-116 = test system: HCT-116
A498 = test system: A498
SN12C = test system: SN12C

| SMILES | GI50 (RXF 393) | GI50 (SK-MEL-5) | GI50 (CCRF-CEM) | GI50 (K562) | GI50 (KM12) | GI50 (OVCAR-4) | GI50 (SW-620) | GI50 (NCI-H23) | GI50 (ACHN) | GI50 (MCF7) | GI50 (HOP-62) | GI50 (NCI/ADR-RES) | GI50 (SK-MEL-2) | GI50 (HCT-116) | GI50 (A498) | GI50 (SN12C) |
| --- | --- | --- | --- | --- | --- | --- | --- | --- | --- | --- | --- | --- | --- | --- | --- | --- |
| O=C1C(c2ccc([N+](=O)[O-])cc2)=[N+]([O-])c2ccc([N+](=O)[O-])cc21 | 56.4 µM (inactive) | 30.8 µM (inactive) | 24.2 µM (inactive) | 27.7 µM (inactive) | 74 µM (inactive) | 28.1 µM (inactive) | 39.4 µM (inactive) | 33.8 µM (inactive) | 32.2 µM (inactive) |  |  |  |  |  |  |  |
| CN(C)/N=N/c1ccc([N+](=O)[O-])cc1C(N)=O | > 100 µM (inactive) | > 100 µM (inactive) | > 100 µM (inactive) | > 100 µM (inactive) | > 100 µM (inactive) | > 100 µM (inactive) | > 100 µM (inactive) | > 100 µM (inactive) |  | > 100 µM (inactive) | > 90.4 µM (inactive) | > 100 µM (inactive) | > 100 µM (inactive) | > 100 µM (inactive) | > 80.9 µM (inactive) | > 100 µM (inactive) |
| N=C(NNS(=O)(=O)c1ccccc1)Oc1ccc(Cl)cc1 | 11.3 µM (inactive) | > 100 µM (inactive) | 38.3 µM (inactive) | 24.8 µM (inactive) | > 100 µM (inactive) | > 100 µM (inactive) | 5.75 µM (inactive) | > 100 µM (inactive) | > 100 µM (inactive) |  | > 100 µM (inactive) |  | > 100 µM (inactive) | 65.8 µM (inactive) | > 100 µM (inactive) | > 100 µM (inactive) |
| CC(C)(C)C(=O)OCC1OC(N=[N+]=[N-])C(OC(=O)C(C)(C)C)C(OC(=O)C(C)(C)C)C1OC(=O)C(C)(C)C (stereo not given) | > 100 µM (inactive) | > 100 µM (inactive) | > 100 µM (inactive) | > 100 µM (inactive) | > 100 µM (inactive) | > 100 µM (inactive) | > 100 µM (inactive) | > 100 µM (inactive) | > 100 µM (inactive) |  | > 100 µM (inactive) |  | > 100 µM (inactive) | > 100 µM (inactive) | > 100 µM (inactive) | > 100 µM (inactive) |
| COc1cc2c(cc1O)CCN[C@@]21CS[C@H]2c3c(OC(C)=O)c(C)c4c(c3C(COC1=O)N1C2C2NC(Cc3cc(C)c(OC)c(O)c32)[C@@H]1C#N)OCO4 (stereo not given in full) | < 0.01 µM (active) | < 0.01 µM (active) | < 0.01 µM (active) | < 0.01 µM (active) |  | < 0.01 µM (active) | < 0.01 µM (active) | < 0.01 µM (active) | < 0.01 µM (active) |  | < 0.01 µM (active) |  | < 0.01 µM (active) | < 0.01 µM (active) | < 0.01 µM (active) | < 0.01 µM (active) |
| COC[C@@H](Cc1ccc(OC)c(OC)c1)[C@@H](COC)Cc1ccc(OC)c(OC)c1 | > 100 µM (inactive) | 51.9 µM (inactive) | 56.5 µM (inactive) | > 100 µM (inactive) | > 100 µM (inactive) |  | > 100 µM (inactive) | > 100 µM (inactive) | > 100 µM (inactive) |  |  |  | > 100 µM (inactive) | 94 µM (inactive) | > 100 µM (inactive) | > 100 µM (inactive) |
| Nc1nnc(CCC(=O)Nc2cc(Cl)ccc2Cl)n1N | > 100 µM (inactive) | > 100 µM (inactive) | > 100 µM (inactive) | > 100 µM (inactive) | > 100 µM (inactive) | > 100 µM (inactive) | > 100 µM (inactive) | > 100 µM (inactive) | > 100 µM (inactive) |  | > 100 µM (inactive) |  | > 100 µM (inactive) | > 100 µM (inactive) | > 100 µM (inactive) | > 100 µM (inactive) |
| CC(C)(Br)C1(O)CCCN1C(=O)c1ccccc1 (stereo not given) | > 100 µM (inactive) | > 100 µM (inactive) | > 100 µM (inactive) | 33 µM (inactive) | > 100 µM (inactive) |  | > 100 µM (inactive) | > 100 µM (inactive) | > 100 µM (inactive) |  |  |  | > 100 µM (inactive) | > 100 µM (inactive) | > 100 µM (inactive) | > 100 µM (inactive) |
| COc1ccc([Se][Se]c2ccc(OC)cc2OC)c(OC)c1 | 2.13 µM (inactive) | 7.85 µM (inactive) | 2.08 µM (inactive) | 2.88 µM (inactive) | 3.52 µM (inactive) | 2.1 µM (inactive) | 2.59 µM (inactive) | 2.92 µM (inactive) | 2.86 µM (inactive) |  | > 10 µM (inactive) |  | 4.08 µM (inactive) | 2.75 µM (inactive) | 18.2 µM (inactive) | 2 µM (inactive) |
| C=COCCCOc1ccccc1 | > 100 µM (inactive) | > 100 µM (inactive) | > 100 µM (inactive) | > 100 µM (inactive) | > 100 µM (inactive) | > 100 µM (inactive) | > 100 µM (inactive) | > 100 µM (inactive) | > 100 µM (inactive) |  | > 100 µM (inactive) |  | > 100 µM (inactive) | > 100 µM (inactive) |  | > 100 µM (inactive) |
